Read-outs that look alike come from different tables or passages of the source.
Legend:
L. i. chagasi = format: in vivo, Leishmania infantum chagasi; conditions: infected BALB/c mice
RAW 264.7 cells = format: cell-based, murine; conditions: Table 1 and text, 48 h, MTT
[1] = tested on: promastigote of Leishmania amazonensis; conditions: ref Medeiros et al. 21; cited from earlier work
[2] = 100 mg/kg IP once a day for 30 days
[3] = Glucantime 80 mg/Kg intra muscular once a day for 30 days

## C=CCc1ccc(OC(C)=O)c(OC)c1 [Acetyl-Eugenol, O-acetyl-eugenol]
L. i. chagasi; [2]
  Presence of amastigotes in spleen (immunohistochemistry, qualitative): could not be visualized

## CC(=O)Oc1cc(C)ccc1C(C)C [Acetyl-Thymol, O-acetyl-thymol]
RAW 264.7 cells
  Toxicity % RAW 264.7 cells survival at 100 μg/mL (±SD): not toxic
L. i. chagasi; [2]
  Amount of amastigotes seen in spleen stain: regular amount of parasites

## C=CCc1ccc(OC(=O)c2ccccc2)c(OC)c1 [Benzoyl-Eugenol, O-benzoyl-eugenol]
L. i. chagasi; [2]
  Presence of amastigotes in spleen (immunohistochemistry, qualitative): could not be visualized

## Cc1ccc(C(C)C)c(OC(=O)c2ccccc2)c1 [Benzoyl-Thymol, O-benzoyl-thymol]
L. i. chagasi; [2]
  Presence of amastigotes in spleen (immunohistochemistry, qualitative): could not be visualized

## Cc1ccc(C(C)C)c(O)c1 [Thymol]
[1]
  EC50 against promastigote of Leishmania amazonensis: 19.4 µg/mL

## antimoniate N-methyl glucamine [Glucantime, reference compound]
L. i. chagasi; [3]
  Amount of amastigotes seen in spleen stain: only a few amastigotes
  Presence of amastigotes in spleen (immunohistochemistry, qualitative): visible

— article PMC5106290 (Bioorganic & medicinal chemistry, 2014)
